Like-named read-outs stand apart in the source and are kept apart here.
Columns and labels:
HIV-1 wild-type strain = test: General antiviral assay, cell-based virus replication in MT4-LTR-EGFP cells, wild-type strain; conditions: wild-type strain IIIB, MT4-LTR-EGFP cells
Method: (§1) MT4-LTR-EGFP cells were obtained by transfecting MT4 cells with a selectable construct encompassing the sequences coding for the HIV long terminal repeat (LTR) as a promoter for the expression of enhanced green fluorescent protein (EGFP) and subsequent selection of permanently transfected cells.
(§2) The antiviral activity on different HIV-1 strains, was determined in a cell-based virus replication assay. Here MT4-LTR-EGFP cells (150,000 cells/ml) are infected (multiplicity of infection [MOI] of 0.0025) in the presence or absence of different inhibitor concentrations. Two methodologies for read-out were used, either quantification of GFP-fluoresence on day 3 post-infection, or quantification of cell-viability using rezazurin (as described by Fields, R. D., and M. V. Lancaster (1993) Am. Biotechnol. Lab. 11:48-50) on day 4 post infection.

HIV-1 IIIB = test: 50% HS-Rezazurin: antiviral assay in the presence of 50% human serum, MT-4 cells, resazurin cell viability; format: cell-based
Method: For the Antiviral assay in the presence of 50% human serum MT-4 cells were infected with HIV-1 IIIB at a MOI of 0.001 to 0.01 CCID50/cell in RPMI1640 medium. Following 1 h of incubation, cells were washed and plated into a 96-well plate containing serial dilutions of compound in the presence of 10% fetal calf serum (FCS), or 50% human serum. After 4 days incubation, the EC50 in the presence of 50% human serum was determined by a cell viability assay using resazurin.
The last column lists the results for the wild-type strain IIB in the presence of 50% human serum MT-4 cells.

[1] = tested on: HIV-1 Strain A (M046I, I084V); test: microbe, parasite or virus in culture; format: cell-based; conditions: clinical isolate Strain A; read-out: A EC50
Method: as §1, §2
(§3) In the following Table, Strains A, B, and C are clinical isolates that include the following protease inhibitor resistance mutations in the protease domain (background mutations are not mentioned).

[2] = tested on: HIV-1 Strain B (M046I, I050V); test: microbe, parasite or virus in culture; format: cell-based; conditions: clinical isolate Strain B; read-out: B EC50
Method: as §1, §2, §3

[3] = tested on: HIV-1 Strain C (G048G/V, V082A); test: microbe, parasite or virus in culture; format: cell-based; conditions: clinical isolate Strain C; read-out: C EC50
Method: as §1, §2, §3

mock-infected MT4 cells = test: General toxicity assay on mock-infected MT4 cells with CMV-EGFP reporter (CC50); format: cell-based
[4] = MT4LTR cells, read-out: TOX-MT4LTR (CC50)
[5] = mock-infected MT4 cells with CMV-EGFP reporter, read-out: TOX-MT4CMV (CC50)

SMILES | EC50 (HIV-1 wild-type strain) [nM] | EC50 (HIV-1 IIIB) [nM] | EC50 [1] [nM] | EC50 [2] [nM] | EC50 [3] [nM] | CC50 (mock-infected MT4 cells; [4]) [µM] | CC50 (mock-infected MT4 cells; [5]) [µM]
COC(=O)N[C@H](C(=O)N[C@@H](Cc1ccc(-c2cnc(OC)nc2)cc1)[C@@H](O)C[C@@H](Cc1ccccc1F)C(=O)N[C@H]1c2cc(Cl)ccc2OC[C@H]1O)C(C)(C)C [Compound 48] | 3.8 | 7.5 | 2.6 | 2.2 | 1.3 | > 32 | 
COC(=O)N[C@H](C(=O)N[C@@H](Cc1ccc(-c2cnc(N(C)C)nc2)cc1)[C@@H](O)C[C@@H](Cc1cccc(OC(F)(F)F)c1)C(=O)N[C@H]1c2cc(Cl)ccc2OC[C@H]1O)C(C)(C)C [Compound 49] | 4.1 | 19 | 5.2 | 3.5 | 2.9 | > 32 | 
COC(=O)N[C@H](C(=O)N[C@@H](Cc1ccc(-c2ccc(OC)nc2)cc1)[C@@H](O)C[C@@H](Cc1ccccc1F)C(=O)N[C@H]1c2cccc(F)c2OC[C@H]1O)C(C)(C)C [Compound 50] | 2.8 | 6.9 | 2 | 1.4 | 1.1 | > 32 | 
COC(=O)N[C@H](C(=O)N[C@@H](Cc1ccc(-c2ccc(N(C)C)nc2)cc1)[C@@H](O)C[C@@H](Cc1ccccc1F)C(=O)N[C@H]1c2cccc(F)c2OC[C@H]1O)C(C)(C)C [Compound 51] | 3 | 7 | 2.3 | 1.5 | 1.3 | > 32 | 
COC(=O)N[C@H](C(=O)N[C@@H](Cc1ccc(-c2cc(C)nc(C)c2)cc1)[C@@H](O)C[C@@H](Cc1ccccc1F)C(=O)N[C@H]1c2cccc(Cl)c2OC[C@H]1O)C(C)(C)C [Compound 54] | 4.8 | 19.8 | 2.7 | 2.1 | 1.6 | > 32 | 
COCCOC(=O)N[C@H](C(=O)N[C@@H](Cc1ccc(-c2ccc(OC)nc2)cc1)[C@@H](O)C[C@@H](Cc1ccccc1F)C(=O)N[C@H]1c2cc(Cl)ccc2OC[C@H]1O)C(C)(C)C [Compound 55] | 2.7 | 12.5 | 2.1 | 1.5 | 1.2 | > 32 | 
COC(=O)N[C@H](C(=O)N[C@@H](Cc1ccc(-c2ccc(OC)nc2)cc1)[C@@H](O)C[C@@H](Cc1ccccc1F)C(=O)N[C@H]1c2cc(F)cc(Cl)c2OC[C@H]1O)C(C)(C)C [Compound 56] | 2.6 | 8.4 | 1.4 | 1.2 | 0.7 | > 32 | 
COC(=O)N[C@H](C(=O)N[C@@H](Cc1ccc(-c2ccc(OC)nc2)cc1)[C@@H](O)C[C@@H](Cc1ccccc1Cl)C(=O)N[C@H]1c2cc(Cl)ccc2OC[C@H]1O)C(C)(C)C [Compound 58] | 3.9 | 13.3 | 6 | 2.5 | 1.8 | > 32 | 
COC(=O)N[C@H](C(=O)N[C@@H](Cc1ccc(-c2ccc(N(C)C)nc2)cc1)[C@@H](O)C[C@@H](Cc1ccccc1F)C(=O)N[C@H]1c2cc(Cl)cc(F)c2OC[C@H]1O)C(C)(C)C [Compound 60] | 4.1 | 25.2 | 2.6 | 1.9 | 1.2 | 10 | 
COC(=O)N[C@H](C(=O)N[C@@H](Cc1ccc(-c2ccc(OC)nc2)cc1)[C@@H](O)C[C@@H](Cc1ccccc1F)C(=O)N[C@H]1c2cc(Cl)cc(F)c2OC[C@H]1O)C(C)(C)C [Compound 61] | 4.1 | 16.1 | 3 | 2.1 | 1.6 | > 32 | 
COC(=O)N[C@H](C(=O)N[C@@H](Cc1ccc(-c2cnc(N(C)C)nc2)cc1)[C@@H](O)C[C@@H](Cc1cccc(F)c1)C(=O)N[C@H]1c2cc(F)ccc2OC[C@H]1O)C(C)(C)C [Compound 62] | 3.2 | 16.3 | 2.2 | 1.5 | 0.9 | > 32 | 
COC(=O)N[C@H](C(=O)N[C@@H](Cc1ccc(-c2cnc(N(C)C)nc2)cc1)[C@@H](O)C[C@@H](Cc1ccccc1Cl)C(=O)N[C@H]1c2cc(F)ccc2OC[C@H]1O)C(C)(C)C [Compound 63] | 1.5 | 9.4 | 1.2 | 0.7 | 0.6 | > 32 | 
COC(=O)N[C@H](C(=O)N[C@@H](Cc1ccc(-c2cnc(OC)nc2)cc1)[C@@H](O)C[C@@H](Cc1cccc(F)c1)C(=O)N[C@H]1c2cc(F)ccc2OC[C@H]1O)C(C)(C)C [Compound 65] | 9.1 | 24.7 | 4.5 | 3.6 | 2.3 | > 32 | 
COC(=O)N[C@H](C(=O)N[C@@H](Cc1ccc(-c2ccc(OC)nc2)cc1)[C@@H](O)C[C@@H](Cc1ccccc1F)C(=O)N[C@H]1c2cc(C)ccc2OC[C@H]1O)C(C)(C)C [Compound 66] | 0.9 | 7.7 | 0.8 | 0.8 | 0.5 | > 32 | 
COC(=O)N[C@H](C(=O)N[C@@H](Cc1ccc(-c2ccc(OC)nc2)cc1)[C@@H](O)C[C@@H](Cc1ccccc1Cl)C(=O)N[C@H]1c2cc(F)ccc2OC[C@H]1O)C(C)(C)C [Compound 67] | 2.9 | 5.3 | 2.1 | 1.2 | 1 | > 32 | > 32
CN(C)c1ccc(-c2ccc(C[C@H](NC(=O)O[C@H]3CO[C@H]4OCC[C@H]43)[C@@H](O)C[C@@H](Cc3ccccc3F)C(=O)N[C@H]3c4cc(F)ccc4OC[C@H]3O)cc2)cn1 [Compound 68] | 3 | 9.4 | 2.2 | 1.5 | 1.3 |  | > 32
COc1cccc(C[C@H](C[C@H](O)[C@H](Cc2ccc(-c3ccc(OC)nc3)cc2)NC(=O)O[C@H]2CO[C@H]3OCC[C@H]32)C(=O)N[C@H]2c3cc(Cl)ccc3OC[C@H]2O)c1 [Compound 70] | 2.6 | 11.4 | 1.6 | 1.6 | 1.2 | > 32 | > 32
COc1cccc(C[C@H](C[C@H](O)[C@H](Cc2ccc(-c3csc(N(C)C)n3)cc2)NC(=O)O[C@H]2CO[C@H]3OCC[C@H]32)C(=O)N[C@H]2c3cc(Cl)ccc3OC[C@H]2O)c1 [Compound 71] | 2.1 | 10.9 | 2.2 | 2.3 | 1 | > 32 | > 32
COc1ccc(-c2ccc(C[C@H](NC(=O)O[C@H]3CO[C@H]4OCC[C@H]43)[C@@H](O)C[C@@H](Cc3ccccc3F)C(=O)N[C@H]3c4cc(Cl)ccc4OC[C@H]3O)cc2)cn1 [Compound 72] | 1.5 | 5.8 | 0.8 | 0.8 | 0.5 | > 32 | 
COc1ccc(-c2ccc(C[C@H](NC(=O)O[C@H]3CO[C@H]4OCC[C@H]43)[C@@H](O)C[C@@H](Cc3cccc(OC(F)(F)F)c3)C(=O)N[C@H]3c4cc(Cl)ccc4OC[C@H]3O)cc2)cn1 [Compound 73] | 3.3 | 9.2 | 3.7 | 4.1 | 1.9 | > 32 | 
COc1ccc(-c2ccc(C[C@H](NC(=O)O[C@H]3CO[C@H]4OCC[C@H]43)[C@@H](O)C[C@@H](Cc3ccccc3F)C(=O)N[C@H]3c4ccsc4CC[C@H]3O)cc2)cn1 [Compound 74] | 0.9 | 3.5 | 0.8 | 0.6 | 0.4 | > 32 | 
COc1ccc(-c2ccc(C[C@H](NC(=O)O[C@H]3CO[C@H]4OCC[C@H]43)[C@@H](O)C[C@@H](Cc3ccccc3F)C(=O)N[C@H]3c4cccc(Cl)c4OC[C@H]3O)cc2)cn1 [Compound 75] | 2.4 | 9.3 | 1.4 | 0.9 | 0.8 | > 32 | 
Cc1cc(-c2ccc(C[C@H](NC(=O)O[C@H]3CO[C@H]4OCC[C@H]43)[C@@H](O)C[C@@H](Cc3ccccc3F)C(=O)N[C@H]3c4cc(Cl)ccc4OC[C@H]3O)cc2)cc(C)n1 [Compound 76] | 2.9 | 20.5 | 1.7 | 1.5 | 1.1 | > 32 | 
